Experimental data from patent US20200025762A1, “NON-TARGET SITE RESISTANCE” (UNIVERSITY OF NEWCASTLE UPON TYNE, priority 2017, published 2020).

Tests used:
[1] = test system: Pendimethalin population (ROTH PEND 14) of black-grass; test: Cross resistance test of the Pendimethalin selected line; type: in vivo, Alopecurus myosuroides; settings: full or ¾ field rate; FIG. 18; not due to TSR (PCR of ACCases)
Description: (§1) However, given that the two populations have no known relationship to the HS population, some of these differences could have arisen due to background genetic variation not linked to herbicide resistance. To test this, the inventors extended the proteomic comparison to two additional populations originating from the HS Rothamsted population that had undergone 5-7 years of experimentally controlled selection under a single herbicide regime, either Fenoxaprop or Pendimethalin (Supplementary Methods S1). These herbicides were used because whereas resistance to fenoxaprop can arise through both TSR- and NTSR-based mechanisms (Cocker et al., 1999), evolved tolerance to pendimethalin in black-grass is most commonly associated with enhanced detoxification (James et al., 1995). The inventors then tested these populations for cross-resistance to other herbicides at either full or ¾ field rate (Supplementary Methods S2). Despite being selected under exposure to a single herbicidal mode of action (inhibition of microtubule assembly), the Pendimethalin population was also resistant against several herbicides with ACCase mode of action (fenoxaprop, clodinafop, cycloxidim), but not ALS or cell division MOA (FIG. 18). PCR of the respective ACCases in the selected population (Marshall et al., 2013), confirmed that resistance was not due to TSR-related mechanisms.
A black-grass population originating from Rothamsted Broadbalk experimental grounds (guaranteed herbicide free) was used as the standard Herbicide Susceptible (HS) population, collected in 2009. This was used as a standard control for two “real” NTSR populations originating from wheat field sites in Essex (Peldon) and Oxford and two experimental NTSR populations that had undergone directed selection to two types of herbicidal active ingredients (Fenoxaprop and Pendimethalin). Both experimental populations originated from the Rothamsted HS population in 2004. Further details on the selection regime to create the distinct Fenoxaprop and Pendimethalin resistant populations are provided in Supplementary Methods S1/S2. […]

[2] = test system: Fenoxaprop population (ROTH FEN OUT) of black-grass; test: Cross resistance test of the Fenoxaprop selected line; type: in vivo, Alopecurus myosuroides; settings: full or ¾ field rate; FIG. 18; no evidence of TSR
Description: as §1, with “mechanisms. […]” for “mechanisms.”

| Structure (SMILES) | herbicide resistance of the Pendimethalin population [1] | herbicide resistance of the population selected with fenoxaprop [2] |
| --- | --- | --- |
| CC(Oc1ccc(Oc2nc3ccc(Cl)cc3o2)cc1)C(=O)O (stereo not shown) [fenoxaprop] | resistant | only resistant toward the selecting herbicide |
| C#CCOC(=O)[C@@H](C)Oc1ccc(Oc2ncc(Cl)cc2F)cc1 | resistant | – |
| CCCC(=NOCC)C1=C(O)CC(C2CCCSC2)CC1=O (stereo not shown) [cycloxidim] | resistant | – |
